Columns and labels:
Assay in all cases: Minimal inhibitory concentration (M.I.C.), agar dilution method
Conditions in all cases: TSA, inoculum 10^7 /ml
P. vulgaris GN 4413 = assay type: cell-based, Proteus vulgaris
From the text: (§1) (a) Determination of minimal inhibitory concentrations (Tables 1 to 8):
(§2) Procedure: agar dilution method

P. vulgaris IFO 3988 = assay type: cell-based, Proteus vulgaris
From the text: as §1, §2

P. morganii IFO 3168 = assay type: cell-based, Proteus morganii
From the text: as §1, §2

E. cloacae TN 1282 = assay type: cell-based, Enterobacter cloacae
From the text: as §1, §2

C. freundii GN 1706 = assay type: cell-based, Citrobacter freundii
From the text: as §1, §2

C. freundii GN 99 = assay type: cell-based, Citrobacter freundii
From the text: as §1, §2

E. coli NIHJ JC-2 = assay type: cell-based, Escherichia coli
From the text: as §1, §2

E. coli T-7 = assay type: cell-based, Escherichia coli
From the text: as §1, §2

K. pneumoniae DT = assay type: cell-based, Klebsiella pneumoniae
From the text: as §1, §2

K. pneumoniae GN 3835 = assay type: cell-based, Klebsiella pneumoniae
From the text: as §1, §2

P. mirabilis GN 4359 = assay type: cell-based, Proteus mirabilis
From the text: as §1, §2

S. aureus 209P = assay type: cell-based, Staphylococcus aureus
From the text: as §1, §2

S. aureus 1840 = assay type: cell-based, Staphylococcus aureus
From the text: as §1, §2

S. marcescens TN 24 = assay type: cell-based, Serratia marcescens
From the text: as §1, §2

S. marcescens IFO 12648 = assay type: cell-based, Serratia marcescens
From the text: as §1, §2

P. rettgeri TN 338 = assay type: cell-based, Proteus rettgeri
From the text: as §1, §2

P. rettgeri GN4733 = assay type: cell-based, Proteus rettgeri
From the text: as §1, §2

E. coli 0-111 = assay type: cell-based, Escherichia coli
From the text: The minimal inhibitory concentrations (M.I.C.) of some representative cephalosporin derivatives of this invention as produced by the procedures described in those examples and the minimal inhibitory concentrations of cephalothin [sodium 7-(2-thienylacetamido)-3-acetoxymethyl-3-cephem-4-carboxylate], cephaloridine [7-(2-thienylacetamido)-3-(1-pyridyl)methyl-3-cephem-4-carboxylic acid betaine] and cefazolin [sodium 7-(1H-tetrazol-1-yl)acetamido-3-(2-methyl-1,3,4-thiadiazol-5-yl)thiomethyl-3-cephem-4-carboxylate], which are among the clinically established and commercially available cephalosporins (as described, for example, in the New England Journal of Medicine 294, 24, 1976 and Journal of Pharmaceutical Science 64, 1899, 1975), both against various bacteria, as well as the therapeutic effects of some respresentative cephalosporin derivatives of this invention and of cephaloridine in infected mice, are shown in tables.
as §1, §2

Row | Compound | minimal inhibitory concentration (M.I.C.) (P. vulgaris GN 4413) | minimal inhibitory concentration (M.I.C.) (P. vulgaris IFO 3988) | minimal inhibitory concentration (M.I.C.) (P. morganii IFO 3168) | minimal inhibitory concentration (M.I.C.) (E. cloacae TN 1282) | minimal inhibitory concentration (M.I.C.) (C. freundii GN 1706) | minimal inhibitory concentration (M.I.C.) (C. freundii GN 99) | minimal inhibitory concentration (M.I.C.) (E. coli NIHJ JC-2) | minimal inhibitory concentration (M.I.C.) (E. coli T-7) | minimal inhibitory concentration (M.I.C.) (K. pneumoniae DT) | minimal inhibitory concentration (M.I.C.) (K. pneumoniae GN 3835) | minimal inhibitory concentration (M.I.C.) (P. mirabilis GN 4359) | minimal inhibitory concentration (M.I.C.) (S. aureus 209P) | minimal inhibitory concentration (M.I.C.) (S. aureus 1840) | minimal inhibitory concentration (M.I.C.) (S. marcescens TN 24) | minimal inhibitory concentration (M.I.C.) (S. marcescens IFO 12648) | minimal inhibitory concentration (M.I.C.) (P. rettgeri TN 338) | minimal inhibitory concentration (M.I.C.) (P. rettgeri GN4733) | minimal inhibitory concentration (M.I.C.) (E. coli 0-111)
1 | CNC(=O)O/N=C(\C(=O)NC1C(=O)N2C(C(=O)O)=C(COC(C)=O)CSC12)c1csc(=N)[nH]1 (stereo not drawn) [Example II - 1, sodium 7-[2-(2-imino-4-thiazolin-4-yl)-2-methylcarbamoyloximinoacetamido]-3-acetoxymethyl-3-cephem-4-carboxylate (syn-isomer)] | 12.5 | 0.05 | 0.39 | 1.56 | 0.39 | 0.1 | 0.1 | 0.39 | 0.05 | 0.1 | 0.1 | 1.56 | 3.13 | 6.25 | 3.13 | ≤ 0.012 | 0.05 | ≤ 0.012
2 | CNC(=O)O/N=C(\C(=O)NC1C(=O)N2C(C(=O)O)=C(CSc3cnn[nH]3)CSC12)c1csc(=N)[nH]1 (stereo not drawn) [Example IV - 9] | 25 | 0.39 | 0.78 | 6.25 | 1.56 | 0.78 | 0.78 | 3.13 | ≤ 0.2 | 0.78 | 0.39 | 3.13 | 3.13 | 6.25 | 6.25 | ≤ 0.2 | 1.56 | ≤ 0.2
3 | CNC(=O)O/N=C(\C(=O)NC1C(=O)N2C(C(=O)[O-])=C(C[n+]3ccc(C(N)=O)cc3)CSC12)c1csc(=N)[nH]1 (stereo not drawn) [Example IV - 2, 7-[2-(2-imino-4-thiazolin-4-yl)-2-methylcarbamoyloximinoacetamido]-3-(4-carbamoylpyridiniummethyl)-3-cephem-4-carboxylate (syn-isomer)] | 12.5 | 0.78 | 0.78 | 3.13 | 1.56 | 0.78 | 0.78 | 6.25 | 0.39 | 1.56 | 1.56 | 3.13 | 3.13 | 3.13 | 3.13 | 0.1 | 0.78 | 0.2
4 | CC(=O)OCC1=C(C(=O)[O-])N2C(=O)C(NC(=O)Cc3cccs3)[C@H]2SC1.[Na+] (stereo partly drawn) [Cephalothin, sodium 7-(2-thienylacetamido)-3-acetoxymethyl-3-cephem-4-carboxylate, reference compound] | > 100 | 1.56 | > 100 | > 100 | > 100 | 25 | 12.5 | 100 | 1.56 | 12.5 | 3.13 | 0.20 | 0.39 | > 100 | > 100 | 1.56 | > 100 | 3.13
5 | CNC(=O)O/N=C(\C(=O)NC1C(=O)N2C(C(=O)O)=C(CSc3nnc(C)s3)CSC12)c1csc(=N)[nH]1 (stereo not drawn) [Example II - 5, sodium 7-[2-(2-imino-4-thiazolin-4-yl)-2-methylcarbamoyloximinoacetamido]-3-(2-methyl-1,3,4-thiadiazol-5-yl)thiomethyl-3-cephem-4-carboxylate (syn-isomer)] | 12.5 | 0.39 | 0.39 | 1.56 | 1.56 | 0.39 | 0.39 | 3.13 | 0.1 | 0.78 | 0.78 | 3.13 | 3.13 | 0.78 | 3.13 | ≤ 0.05 | 0.78 | 0.1
6 | CCNC(=O)O/N=C(\C(=O)NC1C(=O)N2C(C(=O)O)=C(COC(C)=O)CSC12)c1csc(=N)[nH]1 (stereo not drawn) [Example II - 7] | 6.25 | 0.2 | 1.56 | 12.5 | 0.78 | 0.39 | 0.39 | 1.56 | 0.05 | 0.39 | 0.1 | 1.56 | 3.13 | 6.25 | 6.25 | ≤ 0.012 | 0.1 | 0.024

From patent US4200575A, “7[(2-Thiazolyl)-2-(oxoimino)acetamido]cephalosporin derivatives” (Takeda Chemical Industries, Ltd., priority 1977, dated 1980)
